Laboratory results as given in patent US5482923A, “Heparin neutralization with platelet factor 4 fragments” (Repligen Corporation, priority 1993, dated 1996).
“Also recorded” adds a separate entry of the source.

Legend:
[1] = test system: Factor Xa; assay: Factor Xa assay: prevention of heparin inhibition of Factor Xa; format: biochemical; settings: for ability to prevent heparin inhibition of Factor Xa: in vitro; for restoration of Factor Xa activity: low concentrations
Text: (§1) The lysine rich region of PF4 (residues 61-66) is also the domain associated with the binding of heparin by PF4. Heparin is known to play a role in modulating anglogenesis, which can also be affected by protamine, another well characterized heparin-binding protein. To assess the ability of PF4-based synthetic peptides to bind heparin, we assayed the activity of coagulation-cascade enzymes which are inhibited by heparin. The Factor Xa assay used here has previously been described in Denton et al., Biochem. J., 209:455-460 (1983).
PF4 isolated from platelets and recombinant E. coli cells were compared for their abilities to prevent heparin inhibition of Factor Xa (essential for the production of thrombin) in vitro.
The abilities of protamine and rPF4 to prevent heparin-inhibition of the coagulation enzyme Factor Xa were compared. The details of the assay are described by Denton et al, 1983, Biochem. J. 209:455. In the Factor Xa assay, 0.5 units of heparin inhibited enzymatic activity almost 90%.
Similar studies and results may be obtained using certain fragments of PF4 or rPF4 that include the heparin binding region, residues 61-66.

[2] = test system: normal human plasma; assay: Neutralization of heparin in human plasma (APTT); settings: 1 unit/ml of heparin; for restoring the APTT to its heparin-free level: added during the incubation before activated thromboplastin
Text: Neutralization of heparin in human plasma was also examined. The activated partial thromboplastin time (APTT) of normal human plasma was increased from its base level of approximately 30 seconds to 195 seconds by the addition of 1 unit/ml of heparin.

[3] = test system: thrombin; assay: Prevention of heparin inhibition of thrombin, conditions similar to the Factor Xa experiments; format: biochemical; settings: for prevention of heparin inhibition of thrombin: 1 μM; for ability to prevent heparin inhibition of thrombin: in vitro
Text: as §1
In experiments carried out under conditions similar to the Factor Xa experiments, thrombin was inhibited 99% by 0.25 units of heparin.

[4] = test system: Sprague Dawley rats; assay: In vivo heparin neutralization in rats (APTT); set-up: species or system rat; settings: for APTT after neutralizing agent: heparin 1 unit/g at t=0, agent at t=2 min, protamine sulfate 1 ug/g, PF4 7.5 ug/g, read at t=10 min
Protocol: (§2) In Vivo experiments were performed on rats to compare the heparin neutralizing activity of protamine and PF4 and to investigate the effect of PF4 on platelet and white blood cell count.
(§3) Sprague Dawley rats (225 g) were anesthetized with pentobarbital, the trachea was intubated, and the right femoral vein and carotid artery were cannulated. The intravenous infusion of heparin was followed by infusion of either protamine or rPF4. Arterial blood samples were taken prior to and immediately after heparin infusion and at several time points following the infusion of the neutralizing agent. Controls were conducted with Ringer's solution in place of heparin and the experimental agents. Samples were used for the following determinations: clotting time, platelet count, and white blood cell count.
(§4) Referring to FIGS. 1 and 2, data are shown from a typical experiment comparing the platelet count, white blood cell count and the APTT in rats when injected with heparin followed by protamine sulfate (FIG. 1) and when injected with heparin followed by rPF4 (FIG. 2). In these Figs., heparin was injected at t=0 and either protamine sulfate or rPF4 injected two minutes thereafter (t=2 minutes). The dosages used were: heparin 1 unit/g animal wt.; protamine sulfate 1 ug/g animal wt.; and PF4 7.5 ug/g animal wt.
Referring now to FIGS. 3 to 5, statistical bar graph data are shown comparing APTT, platelet count, (PC) and white blood cell (WBC) count in rats injected with a control solution, Ringers solution (FIG. 3), injected with heparin followed by protamine sulfate (FIG. 4) and injected with heparin followed by rPF4 (FIG. 5). […]
Samples A were taken before injection; samples B, 2 min after heparin injection; samples C, 10 min after heparin and 8 min after protamine sulfate injection; and samples D, 18 min after heparin injection. Data represent mean values and S.E.M. from experiments except that white blood cells and platelets were counted only in 3 samples taken at 2 and at 18 min after heparin injection. […]

[5] = test system: Sprague Dawley rats; assay: In vivo effect on platelet count, white blood cell count and hematocrit in heparinized rats; set-up: species or system rat; settings: for platelet count, % of initial: after heparin followed by neutralizing agent, FIGS. 4 and 5; for hematocrit levels: conditions as for FIGS. 1 and 2; for change of platelet and white blood cell counts: heparin 100 units/100 g followed by protamine sulfate 100 μg/100 g or rPF4 7.5 μg/g; for white blood cell count / platelet count: t=10 minutes, 8 min after agent, protamine sulfate 1 ug/g, PF4 7.5 ug/g; for white blood cell count: protamine sulfate group over 5 at t=0; for platelet count: t=0: protamine sulfate over 800, rPF4 700
Protocol: as §2, §3, §4
Experiments were also conducted to investigate hematocrit levels under conditions as described with respect to FIGS. 1 and 2. No change in hematocrit levels were observed when either PF4 or protamine were used for heparin neutralization.
Referring now to FIGS. 3 to 5, statistical bar graph data are shown comparing APTT, platelet count, (PC) and white blood cell (WBC) count in rats injected with a control solution, Ringers solution (FIG. 3), injected with heparin followed by protamine sulfate (FIG. 4) and injected with heparin followed by rPF4 (FIG. 5). The data included control rats, five rats injected with heparin followed by protamine sulfate and two rats injected with heparin followed by rPF4.
Samples A were taken before injection; samples B, 2 min after heparin injection; samples C, 10 min after heparin and 8 min after protamine sulfate injection; and samples D, 18 min after heparin injection. Data represent mean values and S.E.M. from experiments except that white blood cells and platelets were counted only in 3 samples taken at 2 and at 18 min after heparin injection. […] The decrease was statistically significant (p<0.01) as compared to samples obtained before heparin injection.
Data represent mean values and S.E.M. from 2 experiments for samples taken at times A-D as indicated in the discussion above with respect to FIG. 4.

[6] = test system: Sprague Dawley rats; assay: as above; set-up: species or system rat; settings: low doses of rPF4 (150 μg/100g); three experiments

Row | Substance | ability to prevent heparin inhibition of Factor Xa [1] | restoration of Factor Xa activity ([1]; 0.5 units of heparin) | restoring the APTT to its heparin-free level [2] | prevention of heparin inhibition of thrombin ([3]; 0.25 units of heparin) | molar dose responses, rPF4 compared with protamine ([3]; 0.25 units of heparin) | ability to prevent heparin inhibition of thrombin [3] | APTT after neutralizing agent [4] | platelet count, % of initial [5] | WBC count ([5]; after heparin followed by protamine sulfate, FIG. 4) | hematocrit levels [5] | respiratory problems ([5]; heparin 1 unit/g followed by protamine sulfate 1 ug/g) | change of platelet and white blood cell counts [5] | white blood cell count [5] | platelet count [5] | inhibition of Factor Xa enzymatic activity ([1]; 0.5 units of heparin) | activated partial thromboplastin time (APTT) ([2]; base level approximately 30 seconds) | inhibition of thrombin ([3]; 0.25 units of heparin) | preventing Factor Xa inhibition, compared with protamine ([1]; concentrations greater than 1 μM, 0.5 units of heparin) | neutralization of the anticoagulant effect of heparin ([4]; low doses of rPF4 (150 μg/100g), three experiments) | effect on platelets and white blood cells [6]
1 | protamine | able to prevent the heparin inhibition of thrombin and Factor Xa at approximately equimolar concentrations | partially restored Factor Xa activity | equally effective in restoring the APTT to its heparin-free level | completely prevented heparin inhibition | no significant difference in their molar dose responses | able to prevent the heparin inhibition of thrombin and Factor Xa at approximately equimolar concentrations | decrease in the APTT to approximately normal levels after about 10 minutes | 48±12.2% | decreased | No change | These rats also had respiratory problems | significant decrease of white blood cell count and platelet count; also recorded: drop in platelet and white blood cell counts | less than 3 ×10^3 /μl | less than 500 ×10^3 /μl |  |  |  |  |  | 
2 | C-13: C-13 peptide of PF4, a PF4-based synthetic peptide (PLYKKIIKKLLES; UniProt P02776 89-101, looked up, fragment) |  |  |  |  |  | unable to prevent the inhibition of thrombin even at concentrations ten times that of an effective level of rPF4 |  |  |  |  |  |  |  |  |  |  |  |  |  | 
3 | heparin [reference compound] |  |  |  |  |  |  |  |  |  |  |  |  |  |  | ~90% | 195 s | 99% |  |  | 
4 | rPF4: Recombinant native sequence human platelet factor 4, 70 residues, produced in E. coli as a fusion protein and cleaved with CNBr | able to prevent the heparin inhibition of thrombin and Factor Xa at approximately equimolar concentrations | partially restored Factor Xa activity | equally effective in restoring the APTT to its heparin-free level | completely prevented heparin inhibition | no significant difference in their molar dose responses | able to prevent the heparin inhibition of thrombin and Factor Xa at approximately equimolar concentrations | restoration of normal APTT levels | 89±4.9% |  | No change |  | did not lead to the extensive depletion of platelet and white blood cells; also recorded: did not produce a statistical decrease in platelet and white blood count | about 4 ×10^3 /μl | about 500 ×10^3 /μl |  |  |  | clearly more effective in preventing Factor Xa inhibition | partially neutralized | no effect on platelets and white blood cells
5 | C-41: The 41 amino acid C-terminal peptide of PF4 (IKAGPHCPTAQLIATLKNGRKICLDLQAPLYKKIIKKLLES; UniProt P02776 61-101, looked up, fragment) | prevented heparin inhibition less effectively; also recorded: demonstrated the ability to neutralize heparin in vitro |  |  |  |  | prevented heparin inhibition less effectively |  |  |  |  |  |  |  |  |  |  |  |  |  | 
